From paper PMC3095316, “Differential expression pattern of an acidic 9/13-lipoxygenase in flower opening and senescence and in leaf response to phloem feeders in the tea plant” (BMC Plant Biology, 2010)
Read-outs that look alike come from different tables or passages of the source.

Target: T1, CsLOX1 (9/13-CsLOX1) (Camellia sinensis, UniProt A8W7J7)
T1 construct: gene lox1
T1 sequence (A8W7J7 1-861): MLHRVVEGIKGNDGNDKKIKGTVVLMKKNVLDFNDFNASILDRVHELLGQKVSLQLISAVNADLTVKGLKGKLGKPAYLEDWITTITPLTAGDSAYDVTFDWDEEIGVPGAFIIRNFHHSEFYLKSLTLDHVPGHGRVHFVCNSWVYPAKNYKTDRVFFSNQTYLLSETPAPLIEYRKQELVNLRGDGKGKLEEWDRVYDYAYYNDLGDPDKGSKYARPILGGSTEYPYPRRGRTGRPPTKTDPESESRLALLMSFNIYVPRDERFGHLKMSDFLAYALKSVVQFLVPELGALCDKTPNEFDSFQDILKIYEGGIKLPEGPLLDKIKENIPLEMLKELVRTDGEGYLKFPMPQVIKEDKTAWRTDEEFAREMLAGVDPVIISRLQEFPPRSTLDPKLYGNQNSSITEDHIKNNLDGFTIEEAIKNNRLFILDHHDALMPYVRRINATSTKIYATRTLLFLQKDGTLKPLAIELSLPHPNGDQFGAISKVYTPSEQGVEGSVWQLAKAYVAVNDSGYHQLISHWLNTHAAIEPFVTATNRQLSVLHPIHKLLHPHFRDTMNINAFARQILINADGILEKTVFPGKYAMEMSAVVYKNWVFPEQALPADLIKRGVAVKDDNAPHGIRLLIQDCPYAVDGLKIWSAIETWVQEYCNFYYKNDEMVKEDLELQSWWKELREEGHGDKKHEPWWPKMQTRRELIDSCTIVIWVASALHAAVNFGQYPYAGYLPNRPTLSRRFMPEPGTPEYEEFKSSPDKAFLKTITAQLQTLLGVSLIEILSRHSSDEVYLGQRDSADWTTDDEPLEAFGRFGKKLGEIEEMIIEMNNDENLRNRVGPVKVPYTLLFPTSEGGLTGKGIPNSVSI
Settings: co-substrate O2, substrate 75-600 μM, pH and temperature of the kinetics not stated (optimum pH 3.6, 25°C)

Row | Km [µM] | Km (linolenic acid isomer not printed (alpha taken from jasmonate context)) [µM] | Compound
1 | 141 | – | CCCCC/C=C\C/C=C\CCCCCCCC(=O)O [linoleic acid]
2 | – | 32.9 | CC/C=C\C/C=C\C/C=C\CCCCCCCC(=O)O [linolenic acid]
